Measured values taken from patent US20240228504A1, “SUBSTITUTED TRICYCLIC AMIDES, ANALOGUES THEREOF, AND METHODS USING SAME” (Arbutus Biopharma Corporation, priority 2020, published 2024).
Where two headings read alike, the source gives them in different places.

Test system: HBV rcDNA in HepDE19 cells
Test: HepDE19 assay with bDNA quantitation of HBV rcDNA
Format: cell-based, hepatitis B virus
Conditions: inhibition of rcDNA formation, bDNA quantitation, read-out: DE-19bDNA EC50
[1] = Hepatitis B virus, HepDE19, HepDE19 assay

## CN(C(=O)c1cc2sc(Cl)cc2[nH]1)[C@@H]1COCc2[nH]c(=O)c3cc(F)c(F)cc3c21 [Compound 349, (S)-2-Chloro-N-(8,9-difluoro-6-oxo-1,4,5,6-tetrahydro-2H-pyrano[3,4-c]isoquinolin-1-yl)-N-methyl-4H-thieno[3,2-b]pyrrole-5-carboxamide]
[1]
  EC50: 10 nM

## CN(C(=O)c1cc2c(F)cccn2c1)C1CSCc2[nH]c(=O)c3cc(F)c(F)cc3c21 (single isomer, unassigned) [Compound 103, N-(8,9-Difluoro-6-oxo-1,4,5,6-tetrahydro-2H-thiopyrano[3,4-c]isoquinolin-1-yl)-8-fluoro-N-methylindolizine-2-carboxamide]
HepDE19 assay
  EC50: 2500 nM

## CN(C(=O)c1cncc(Cl)c1)[C@@H]1COCc2[nH]c(=O)c3cc(F)c(F)cc3c21 [Compound 84, (S)-5-Chloro-N-(8,9-difluoro-6-oxo-1,4,5,6-tetrahydro-2H-pyrano[3,4-c]isoquinolin-1-yl)-N-methylnicotinamide]
[1]
  EC50: 5700 nM

## CN(C(=O)c1cc2c(C#N)cc(F)cc2[nH]1)[C@@H]1COCc2[nH]c(=O)c3cc(F)c(F)cc3c21 [Compound 341, (S)-4-Cyano-N-(8,9-difluoro-6-oxo-1,4,5,6-tetrahydro-2H-pyrano[3,4-c]isoquinolin-1-yl)-6-fluoro-N-methyl-1H-indole-2-carboxamide]
[1]
  EC50: 30 nM

## CN(C(=O)c1cc(F)c(C(F)F)c(F)c1)C1COCc2[nH]c(=O)c3cc(F)ccc3c21 (single isomer, unassigned) [Compound 179, 4-(Difluoromethyl)-3,5-difluoro-N-(8-fluoro-6-oxo-1,4,5,6-tetrahydro-2H-pyrano[3,4-c]isoquinolin-1-yl)-N-methylbenzamide]
HepDE19 assay
  EC50: 50 nM

## CN(C(=O)c1cc2ccccn2c1)C1CNCc2[nH]c(=O)c3cc(F)c(F)cc3c21 (single isomer, unassigned) [Compound 507, N-(8,9-Difluoro-6-oxo-1,2,3,4,5,6-hexahydrobenzo[c][1,7]naphthyridin-1-yl)-N-methylindolizine-2-carboxamide]
HepDE19 assay
  EC50: 60 nM

## CN(C(=O)c1cc2sc(Cl)cc2[nH]1)C1CNCc2[nH]c(=O)c3cc(F)c(F)cc3c21 (single isomer, unassigned) [Compound 453, 2-chloro-N-(8,9-difluoro-6-oxo-1,2,3,4,5,6-hexahydrobenzo[c][1,7]naphthyridin-1-yl)-N-methyl-4H-thieno[3,2-b]pyrrole-5-carboxamide]
HepDE19 assay
  EC50: 2200 nM

## CN(C(=O)c1cc2cc(F)ccc2[nH]1)C1CNCc2[nH]c(=O)c3cc(F)c(F)cc3c21 (single isomer, unassigned) [Compound 101, N-(8,9-Difluoro-6-oxo-1,2,3,4,5,6-hexahydrobenzo[c][1,7]naphthyridin-1-yl)-5-fluoro-N-methyl-1H-indole-2-carboxamide]
HepDE19 assay
  EC50: 10 nM

## CN(C(=O)c1cc2cc(Cl)cnc2[nH]1)[C@@H]1COCc2[nH]c(=O)c3cc(F)c(F)cc3c21 [Compound 191, (S)-5-Chloro-N-(8,9-difluoro-6-oxo-1,4,5,6-tetrahydro-2H-pyrano[3,4-c]isoquinolin-1-yl)-N-methyl-1H-pyrrolo[2,3-b]pyridine-2-carboxamide]
[1]
  EC50: 120 nM

## CN(C(=O)c1ccc2ncsc2c1)[C@@H]1COCc2[nH]c(=O)c3cc(F)c(F)cc3c21 [Compound 428, (S)-N-(8,9-Difluoro-6-oxo-1,4,5,6-tetrahydro-2H-pyrano[3,4-c]isoquinolin-1-yl)-N-methylbenzo[d]thiazole-6-carboxamide]
[1]
  EC50: 340 nM

## CN(C(=O)c1cccc(C#N)c1)[C@@H]1COCc2[nH]c(=O)c3cc(F)c(F)cc3c21 [Compound 135, (S)-3-Cyano-N-(8,9-difluoro-6-oxo-1,4,5,6-tetrahydro-2H-pyrano[3,4-c]isoquinolin-1-yl)-N-methylbenzamide]
[1]
  EC50: 770 nM

## CN(C(=O)[C@H](O)c1ccccc1)[C@@H]1COCc2[nH]c(=O)c3cc(F)c(F)cc3c21 [Compound 96, (R)-N-((S)-8,9-Difluoro-6-oxo-1,4,5,6-tetrahydro-2H-pyrano[3,4-c]isoquinolin-1-yl)-2-hydroxy-N-methyl-2-phenylacetamide]
[1]
  EC50: 10000 nM

## CN(C(=O)c1cc2c(C(F)F)cc(F)cc2[nH]1)[C@@H]1CCCc2[nH]c(=O)c3cc(F)c(F)cc3c21 [Compound 483, (R)-N-(8,9-difluoro-6-oxo-1,2,3,4,5,6-hexahydrophenanthridin-1-yl)-4-(difluoromethyl)-6-fluoro-N-methyl-1H-indole-2-carboxamide]
[1]
  EC50: 10 nM

## CN(C(=O)c1cc2ccccn2c1)C1CNCc2[nH]c(=O)c3cc(F)c(F)cc3c21 (single isomer, unassigned) [Compound 506, N-(8,9-Difluoro-6-oxo-1,2,3,4,5,6-hexahydrobenzo[c][1,7]naphthyridin-1-yl)-N-methylindolizine-2-carboxamide]
HepDE19 assay
  EC50: 22000 nM

## CN(C(=O)c1cc2c(C(F)F)cc(F)cc2[nH]1)C1CNCc2[nH]c(=O)c3cc(F)ccc3c21 (single isomer, unassigned) [Compound 260, 4-(Difluoromethyl)-6-fluoro-N-(8-fluoro-6-oxo-1,2,3,4,5,6-hexahydrobenzo[c][1,7]naphthyridin-1-yl)-N-methyl-1H-indole-2-carboxamide]
HepDE19 assay
  EC50: 60 nM

## CN(C(=O)c1cc2cc(F)c(F)cc2[nH]1)C1CNCc2[nH]c(=O)c3cc(F)c(F)cc3c21 (single isomer, unassigned) [Compound 115, N-(8,9-Difluoro-6-oxo-1,2,3,4,5,6-hexahydrobenzo[c][1,7]naphthyridin-1-yl)-5,6-difluoro-N-methyl-1H-indole-2-carboxamide]
HepDE19 assay
  EC50: 20 nM

## CN(C(=O)c1ccn2c(Cl)ccc2c1)[C@@H]1COCc2[nH]c(=O)c3cc(F)c(F)cc3c21 [Compound 373, (S)-3-Chloro-N-(8,9-difluoro-6-oxo-1,4,5,6-tetrahydro-2H-pyrano[3,4-c]isoquinolin-1-yl)-N-methylindolizine-7-carboxamide]
[1]
  EC50: 10 nM

## CN(C(=O)c1cc2c(C(F)F)cc(F)cc2[nH]1)C1CNCc2[nH]c(=O)c3cc(F)c(F)cc3c21 (single isomer, unassigned) [Compound 258, N-(8,9-Difluoro-6-oxo-1,2,3,4,5,6-hexahydrobenzo[c][1,7]naphthyridin-1-yl)-4-(difluoromethyl)-6-fluoro-N-methyl-1H-indole-2-carboxamide]
HepDE19 assay
  EC50: 20 nM

## CN(C(=O)c1cnc(C(F)(F)F)c(F)c1)[C@@H]1COCc2[nH]c(=O)c3cc(F)c(F)cc3c21 [Compound 412, (S)-N-(8,9-Difluoro-6-oxo-1,4,5,6-tetrahydro-2H-pyrano[3,4-c]isoquinolin-1-yl)-5-fluoro-N-methyl-6-(trifluoromethyl)nicotinamide]
[1]
  EC50: 30 nM

## CN(C(=O)c1cc2scc(Cl)c2[nH]1)[C@@H]1COCc2[nH]c(=O)c3cc(F)c(F)cc3c21 [Compound 350, (S)-3-chloro-N-(8,9-difluoro-6-oxo-1,4,5,6-tetrahydro-2H-pyrano[3,4-c]isoquinolin-1-yl)-N-methyl-4H-thieno[3,2-b]pyrrole-5-carboxamide]
[1]
  EC50: 70 nM

## CN(C(=O)c1cc2ccccc2[nH]1)C1CN(CCO)Cc2[nH]c(=O)c3cc(F)ccc3c21 (single isomer, unassigned) [Compound 80, N-(8-Fluoro-3-(2-hydroxyethyl)-6-oxo-1,2,3,4,5,6-hexahydrobenzo[c][1,7]naphthyridin-1-yl)-N-methyl-1H-indole-2-carboxamide]
HepDE19 assay
  EC50: 6300 nM

## CN(C(=O)c1cc2nc(Br)ccc2[nH]1)[C@@H]1COCc2[nH]c(=O)c3cc(F)c(F)cc3c21 [Compound 268, (S)-5-Bromo-N-(8,9-difluoro-6-oxo-1,4,5,6-tetrahydro-2H-pyrano[3,4-c]isoquinolin-1-yl)-N-methyl-1H-pyrrolo[3,2-b]pyridine-2-carboxamide]
[1]
  EC50: 1800 nM

## CN(C(=O)c1cc2cc(F)c(C(F)F)cc2[nH]1)C1CNCc2[nH]c(=O)c3cc(F)c(F)cc3c21 (single isomer, unassigned) [Compound 221, N-(8,9-Difluoro-6-oxo-1,2,3,4,5,6-hexahydrobenzo[c][1,7]naphthyridin-1-yl)-6-(difluoromethyl)-5-fluoro-N-methyl-1H-indole-2-carboxamide]
HepDE19 assay
  EC50: 30 nM

## CCC(CC)C(=O)OC1OC[C@@H](N(C)C(=O)c2cc3cc(F)c(F)cc3[nH]2)c2c1[nH]c(=O)c1cc(F)c(F)cc21 (stereo partly drawn) [Compound 331, (1S)-1-(5,6-Difluoro-N-methyl-1H-indole-2-carboxamido)-8,9-difluoro-6-oxo-1,4,5,6-tetrahydro-2H-pyrano[3,4-c]isoquinolin-4-yl 2-ethylbutanoate]
[1]
  EC50: 10 nM

## CN(C(=O)c1cccc(S(C)(=O)=O)c1)[C@@H]1COCc2[nH]c(=O)c3cc(F)c(F)cc3c21 [Compound 298, (S)-N-(8,9-Difluoro-6-oxo-1,4,5,6-tetrahydro-2H-pyrano[3,4-c]isoquinolin-1-yl)-N-methyl-3-(methylsulfonyl)benzamide]
[1]
  EC50: 9000 nM

## CN(C(=O)c1cc2c(F)cc(F)cc2[nH]1)C1COCc2[nH]c(=O)c3cc(F)ccc3c21 (single isomer, unassigned) [Compound 36, 4,6-Difluoro-N-(8-fluoro-6-oxo-1,4,5,6-tetrahydro-2H-pyrano[3,4-c]isoquinolin-1-yl)-N-methyl-1H-indole-2-carboxamide]
HepDE19 assay
  EC50: 20 nM

## CN(C(=O)c1cc2cc(F)c(F)cc2[nH]1)[C@H]1COCc2[nH]c(=O)c3cc(F)c(F)cc3c21 [Compound 41, N-(8,9-difluoro-6-oxo-1,4,5,6-tetrahydro-2H-pyrano[3,4-c]isoquinolin-1-yl)-5,6-difluoro-N-methyl-1H-indole-2-carboxamide]
[1]
  EC50: 2200 nM

## CN(C(=O)c1ccc2c(Cl)nn(C(F)F)c2c1)[C@@H]1COCc2[nH]c(=O)c3cc(F)c(F)cc3c21 [Compound 357, (S)-3-Chloro-N-(8,9-difluoro-6-oxo-1,4,5,6-tetrahydro-2H-pyrano[3,4-c]isoquinolin-1-yl)-1-(difluoromethyl)-N-methyl-1H-indazole-6-carboxamide]
[1]
  EC50: 30 nM
